Results: patent US12583826B2, “[(1,5-diphenyl-1H-1,2,4-triazol-3-yl)oxy]acetic acid derivatives and salts thereof, crop protection compositions comprising them, methods for producing them and use thereof as safeners” (Bayer Aktiengesellschaft, priority 2019, dated 2026)

Legend:
[1] = test system: summer wheat (TRZAS; cv. Triso); assay: Relative action (efficacy code): reduction of damage by mesosulfuron-methyl on summer wheat; format: in vivo; parameters: key: 0: no reduction in damage (appearance corresponding to the herbicide control); 1: slight reduction in damage; 2: distinct reduction in damage; 3: significant reduction in damage; 4: complete reduction in damage (appearance corresponding to the untreated control); settings: then mesosulfuron-methyl 40-60 g/ha, visual, 9-13 days after application
Method: 2.3 Relative Action of Selected Compounds of the Invention Using the Example of Reduction of Damage by Mesosulfuron-Methyl on Summer Wheat (TRZAS) The seeds of the crop plants to be treated are laid out in sandy loam in plastic pots (diameter ˜4 cm), covered with soil and grown in a greenhouse under good conditions for germination and growth. The trial plants were treated at the early leaf stage (BBCH10—BBCH12). In the course of this, the inventive compounds of the general formula (I) formulated in the form of wettable powders (WP) were sprayed onto the above-ground parts of the plants as an aqueous suspension with a water application rate corresponding to 800 l/ha with addition of wetting agent (e.g. 0.2% Genapol-LRO or 0.2% Mero) in the specified dose. This was followed by the application of the herbicide. For this purpose, mesosulfuron-methyl, formulated in the form of water-dispersible granules (WG), was sprayed onto the above-ground parts of the plants in the form of an aqueous dispersion with a water application rate corresponding to 800 l/ha with addition of wetting agent (e.g. 0.2% Genapol-LRO or 1 l/ha Biopower) in a dose of 40-60 g/ha. The dose of the herbicide was chosen here such that it causes visually apparent damage (min. 30%, max. 75%) compared to untreated crop plants at the evaluation time on a control group of crop plants without safener treatment that were included in the same trial. After application, the plants were cultivated under good growth conditions in a greenhouse. 9-13 days after application, the efficacy of the test compounds was assessed visually. For this purpose, the appearance of the plants treated with the test compound and herbicide was compared to the corresponding herbicide controls (without safener; with clearly visible damage) and the untreated controls (without damage). The damage-reducing effect of the test compounds was expressed here in graded efficacy codes according to the following scheme: • 0: no reduction in damage (appearance corresponding to the herbicide control) • 1: slight reduction in damage • 2: distinct reduction in damage • 3: significant reduction in damage • 4: complete reduction in damage (appearance corresponding to the untreated control) The trials show clear efficacy of the substances of the invention with regard to the reduction in damage to the summer wheat crop plant (TRZAS; cv. Triso) caused by the herbicide mesosulfuron-methyl: […]

[2] = test system: summer barley (HORVS; cv. Montoya); assay: Relative action (efficacy code): reduction of damage by mesosulfuron-methyl on summer barley; format: in vivo; parameters: key: 0: no reduction in damage (appearance corresponding to the herbicide control); 1: slight reduction in damage; 2: distinct reduction in damage; 3: significant reduction in damage; 4: complete reduction in damage (appearance corresponding to the untreated control); settings: then mesosulfuron-methyl 40-60 g/ha, visual, 9-13 days after application
Method: 2.4 Relative Action of Selected Compounds of the Invention Using the Example of Reduction of Damage by Mesosulfuron-Methyl on Summer Barley (HORVS) The seeds of the crop plants to be treated are laid out in sandy loam in plastic pots (diameter ˜4 cm), covered with soil and grown in a greenhouse under good conditions for germination and growth. The trial plants were treated at the early leaf stage (BBCH10—BBCH12). In the course of this, the inventive compounds of the general formula (I) formulated in the form of wettable powders (WP) were sprayed onto the above-ground parts of the plants as an aqueous suspension with a water application rate corresponding to 800 l/ha with addition of wetting agent (e.g. 0.2% Genapol-LRO or 0.2% Mero) in the specified dose. This was followed by the application of the herbicide. For this purpose, mesosulfuron-methyl, formulated in the form of water-dispersible granules (WG), was sprayed onto the above-ground parts of the plants in the form of an aqueous dispersion with a water application rate corresponding to 800 l/ha with addition of wetting agent (e.g. 0.2% Genapol-LRC) or 1 l/ha Biopower) in a dose of 40-60 g/ha. The dose of the herbicide was chosen here such that it causes visually apparent damage (min. 30%, max. 75%) compared to untreated crop plants at the evaluation time on a control group of crop plants without safener treatment that were included in the same trial. After application, the plants were cultivated under good growth conditions in a greenhouse. 9-13 days after application, the efficacy of the test compounds was assessed visually. For this purpose, the appearance of the plants treated with the test compound and herbicide was compared to the corresponding herbicide controls (without safener; with clearly visible damage) and the untreated controls (without damage). The damage-reducing effect of the test compounds was expressed here separately for 2 repeats in graded efficacy codes according to the following scheme: • 0: no reduction in damage (appearance corresponding to the herbicide control) • 1: slight reduction in damage • 2: distinct reduction in damage • 3: significant reduction in damage • 4: complete reduction in damage (appearance corresponding to the untreated control) The trials show clear efficacy of the substances of the invention with regard to the reduction in damage to the summer barley crop plant (HORVS; cv. Montoya) caused by the herbicide mesosulfuron-methyl: […]

[3] = safener dose 100 (unit not given)
[4] = safener dose 500 (unit not given)

Structure (SMILES)	Efficacy of the safener (efficacy code) [1, 3]	Efficacy of the safener (efficacy code) ([2]; safener 100 g/ha)	Efficacy of the safener (efficacy code) [1, 4]	Efficacy of the safener (efficacy code) ([2]; safener 500 g/ha)
CCOC(=O)CCOC(=O)COc1nc(-c2ccc(F)cc2F)n(-c2ccc(Cl)cc2F)n1 [I.69-49]	2	2		
COC(=O)CCOC(=O)COc1nc(-c2ccc(Cl)cc2Cl)n(-c2ccc(Cl)cc2F)n1 [I.61-49, Methyl 3-(2-{[1-(4-chloro-2-fluorophenyl)-5-(2,4-dichlorophenyl)-1H-1,2,4-triazol-3-yl]oxy}acetoxy)propanoate]	2	2		
CCCCOC(=O)COc1nc(-c2ccc(F)cc2F)n(-c2ccc(Cl)cc2F)n1 [I.66-49]	2	2		
COCCOC(=O)COc1nc(-c2ccc(F)cc2F)n(-c2ccc(F)cc2Cl)n1 [I.67-48]	2	2		
CCOC(=O)COc1nc(-c2ccc(F)cc2F)n(-c2ccc(Cl)cc2F)n1 [I.41-49]	2	2		
COC(=O)COc1nc(-c2c(F)cccc2F)n(-c2ccc(Cl)cc2F)n1 [I.55-49]	2	2	2	2
O=C(O)COc1nc(-c2ccc(F)cc2F)n(-c2ccc(Cl)cc2F)n1 [I.42-49]	2	2	2	3
O=C(O)COc1nc(-c2ccc(F)cc2F)n(-c2c(F)cccc2F)n1 [I.42-43]	2	2	2	2
